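How tested: cells in 96-well plates exposed to compound for 48 hours at five concentrations. The concentration for 50% growth inhibition is given as GI50.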 Activity calls are given as the source filed them. Rule as the data show it: active = GI50 up to about 1.1 µM and inactive = higher.

Among the test systems are SF-295; SW-620; MCF7; SK-MEL-5; KM12; DU-145; OVCAR-4; ACHN; SK-MEL-28; HCC 2998; SR; MDA-N; HL-60; UACC-62; NCI-H23; SK-MEL-2; SNB-75; NCI-H226; MDA-MB-231.
What all share (assay): growth of human tumour cells (NCI), 48 h

Consider `CCOC(=O)C1=c2[nH]c3cccc4cccc(c43)n2C(=O)CC1`, for which the GI50 with SF-295 is > 100 µM (inactive); with SW-620, 29 µM (inactive); in the assay with MCF7 it was 36.2 µM (inactive); with SK-MEL-5, 65.3 µM (inactive); with KM12, 26 µM (inactive); in the assay with DU-145, 51.6 µM (inactive). Moreover, the GI50 with OVCAR-4 is > 100 µM (inactive); with ACHN, > 100 µM (inactive); with SK-MEL-28, > 100 µM (inactive); in the assay on HCC 2998, 84.7 µM (inactive); in the assay on SR, > 100 µM (inactive); with MDA-N, > 100 µM (inactive). In addition, the GI50 with HL-60 was 17.3 µM (inactive); in the assay with UACC-62 it was > 100 µM (inactive); in the assay on NCI-H23, > 100 µM (inactive); in the assay on SK-MEL-2, > 100 µM (inactive); with SNB-75, > 100 µM (inactive).

Take `CSc1nsc(-c2ccccc2)[s+]1.[O-][Cl+3]([O-])([O-])[O-]`: the GI50 with SW-620, in the assay with SK-MEL-5, with KM12, with OVCAR-4, with ACHN and with SK-MEL-28 was > 100 µM (inactive) throughout. For the same compound, the GI50 was > 100 µM (inactive) with HCC 2998; > 100 µM (inactive) with SR; 72.1 µM (inactive) with HL-60; > 100 µM (inactive) in the assay with NCI-H226; > 100 µM (inactive) in the assay with UACC-62; > 100 µM (inactive) in the assay on SK-MEL-2. In addition, in the assay with SNB-75, the GI50 is > 100 µM (inactive).

As to `C=C(C)C(=O)OC1CCC2(C)C(CCC3C2CCC2(C)C(c4ccc(=O)oc4)CC4OC432)C1` (stereo unspecified), the GI50 was 5.07 µM (inactive) in the assay with SF-295; 6.34 µM (inactive) in the assay on SW-620; 2.48 µM (inactive) in the assay on MCF7; 3.8 µM (inactive) in the assay with SK-MEL-5; 6.4 µM (inactive) in the assay with KM12; 5.75 µM (inactive) in the assay with OVCAR-4. For the same compound, the GI50 is 12.5 µM (inactive) in the assay on SK-MEL-28; 5.19 µM (inactive) with HCC 2998; 0.57 µM (active) in the assay with HL-60; 9.42 µM (inactive) in the assay with NCI-H226; 3.33 µM (inactive) with UACC-62; 3.49 µM (inactive) in the assay with NCI-H23. Further, the GI50 was 4.28 µM (inactive) in the assay on SK-MEL-2 and 7.38 µM (inactive) in the assay with SNB-75.

As to `CC(C)C(C/C=C1/CC(CO)(COC(=O)c2ccccc2)OC1=O)C(C)C` (stereo unspecified), the GI50 in the assay with SF-295 is 12.2 µM (inactive); in the assay on SW-620, 16.4 µM (inactive); in the assay on MCF7, 19.6 µM (inactive); in the assay on SK-MEL-5, 8.45 µM (inactive); in the assay on KM12, 15.9 µM (inactive); in the assay on OVCAR-4 it was 15 µM (inactive). Further, the GI50 in the assay on ACHN was 13.9 µM (inactive); with SK-MEL-28, 14.1 µM (inactive); in the assay on MDA-MB-231 it was 15.7 µM (inactive); in the assay with HCC 2998, 18.8 µM (inactive); in the assay on SR it was 30.6 µM (inactive); in the assay with MDA-N it was 15.7 µM (inactive). The GI50 in the assay on NCI-H226 is 16 µM (inactive); with UACC-62 it was 23.9 µM (inactive); in the assay with NCI-H23, 18.1 µM (inactive); with SK-MEL-2 it was > 100 µM (inactive); with SNB-75, 7.5 µM (inactive).

`CCOC(=O)C(C(=O)OCC)=C1NC2(c3ccccc3Nc3ccc(C)cc32)C(C(=O)OC)S1` (stereo unspecified): the GI50 was 10.8 µM (inactive) in the assay with SF-295; 48.6 µM (inactive) in the assay with SW-620; 14.8 µM (inactive) in the assay on MCF7; 13.9 µM (inactive) in the assay on SK-MEL-5; 14.2 µM (inactive) with KM12; 50.6 µM (inactive) with DU-145. Moreover, the GI50 in the assay with OVCAR-4 is 21.9 µM (inactive); with ACHN, 21.4 µM (inactive); with SK-MEL-28, > 100 µM (inactive); in the assay with HCC 2998 it was 15.9 µM (inactive); with SR, 6.34 µM (inactive); with MDA-N, 32.9 µM (inactive). The GI50 was 20 µM (inactive) in the assay with HL-60; 29.9 µM (inactive) in the assay on NCI-H226; 20.8 µM (inactive) with UACC-62; 25.5 µM (inactive) in the assay on NCI-H23; 14.7 µM (inactive) in the assay with SK-MEL-2; 14.9 µM (inactive) in the assay with SNB-75.

`CN1B(c2ccccc2)N(C)C(=O)N(C)C1=O`: the GI50 in the assay on SF-295, in the assay on SW-620, in the assay on MCF7, in the assay with SK-MEL-5, with KM12 and with DU-145 was > 100 µM (inactive) throughout. Also, the GI50 in the assay on ACHN, in the assay with MDA-N, in the assay on HL-60, in the assay on NCI-H226, with UACC-62 and with NCI-H23 was > 100 µM (inactive) throughout. Moreover, the values for the GI50 in the assay on SK-MEL-2 and with SNB-75 were > 100 µM (inactive) and 18.4 µM (inactive), respectively.

Consider `C=CCCCCCCCCC(=O)O` [UNDECYLENIC ACID], for which the GI50 was 109 µM (inactive) with SF-295; 125 µM (inactive) in the assay with SW-620; 152 µM (inactive) with MCF7; 93.8 µM (inactive) in the assay with SK-MEL-5; 27.7 µM (inactive) with KM12; 132 µM (inactive) in the assay on OVCAR-4. Also, the GI50 with SK-MEL-28 was 135 µM (inactive); in the assay on HCC 2998 it was 108 µM (inactive); in the assay on HL-60 it was 101 µM (inactive); with NCI-H226 it was 155 µM (inactive); in the assay on UACC-62, 79.8 µM (inactive); in the assay with NCI-H23, 122 µM (inactive). The GI50 in the assay with SK-MEL-2 is 85.3 µM (inactive); in the assay on SNB-75 it was 168 µM (inactive).

For `N/N=C(\C(=O)Nc1ccc(Cl)cc1Cl)C(c1cnc2ccccc2n1)[N+](=O)[O-]` (stereo unspecified), the GI50 in the assay with SF-295, in the assay with SW-620, in the assay on MCF7, in the assay on SK-MEL-5, in the assay on KM12 and with OVCAR-4 was > 100 µM (inactive) in each case. In addition, the GI50 in the assay with ACHN is 71.1 µM (inactive); in the assay on SK-MEL-28 it was > 100 µM (inactive); with MDA-MB-231, > 100 µM (inactive); with HCC 2998 it was > 100 µM (inactive); in the assay on SR, > 10 µM (inactive); in the assay with MDA-N, > 100 µM (inactive). In addition, the GI50 in the assay with HL-60, with NCI-H226, in the assay with UACC-62, with NCI-H23, in the assay with SK-MEL-2 and in the assay with SNB-75 was > 100 µM (inactive) throughout.

`C#Cc1cc(-c2nc3ccccc3s2)ccc1N`: the GI50 in the assay with SF-295 was 20 µM (inactive); in the assay with SW-620, 34.6 µM (inactive); in the assay with MCF7, < 0.01 µM (active); with SK-MEL-5, 26.6 µM (inactive); in the assay with KM12, 18.9 µM (inactive); in the assay with DU-145, 16.7 µM (inactive). For the same compound, the GI50 is 17.6 µM (inactive) in the assay on OVCAR-4; 24 µM (inactive) in the assay with ACHN; 16.1 µM (inactive) in the assay on SK-MEL-28; 10.3 µM (inactive) with HCC 2998; 25.1 µM (inactive) in the assay on SR; 33 µM (inactive) with MDA-N. The GI50 in the assay with HL-60 was 24.7 µM (inactive); in the assay with NCI-H226, 12.4 µM (inactive); in the assay on UACC-62 it was 17.5 µM (inactive); with NCI-H23, 16.5 µM (inactive); in the assay with SK-MEL-2 it was 16.7 µM (inactive).

As for `CC(C)c1ccc(C(O)(C(=O)O)c2ccc(C(C)C)cc2)cc1`, the GI50 is 26.7 µM (inactive) in the assay with SF-295; 61.8 µM (inactive) with SW-620; 53.7 µM (inactive) with MCF7; 56.8 µM (inactive) in the assay on SK-MEL-5; 39.6 µM (inactive) in the assay on KM12; 61.2 µM (inactive) in the assay with DU-145. The GI50 is 42.6 µM (inactive) in the assay on OVCAR-4; 40.2 µM (inactive) in the assay with ACHN; 64.9 µM (inactive) with SK-MEL-28; 60.8 µM (inactive) with SR; 70 µM (inactive) with MDA-N; 39.2 µM (inactive) with HL-60. Also, the GI50 in the assay with NCI-H226 was 24.5 µM (inactive); in the assay on UACC-62 it was 44.6 µM (inactive); in the assay on NCI-H23, 42.1 µM (inactive); with SNB-75, 42.7 µM (inactive).

With `CC1=NN(c2nc(N)nc(C(C)Sc3cc(Cl)c(C)cc3S(N)(=O)=O)n2)C(C)(C)C1` (stereo unspecified), the GI50 in the assay with SF-295, in the assay with SW-620, in the assay on MCF7, in the assay on SK-MEL-5, with KM12 and in the assay on DU-145 was > 10 µM (inactive) each time. Moreover, the GI50 in the assay on OVCAR-4, in the assay on ACHN, with SK-MEL-28, in the assay with HCC 2998, with SR and with MDA-N was > 10 µM (inactive) in each case. The GI50 in the assay with HL-60, in the assay with NCI-H226, with NCI-H23, with SK-MEL-2 and with SNB-75 was > 10 µM (inactive) in each case.

On to `COC(=O)C1C(O)C(C(=O)OC)C(C)N(C)C1C` (stereo unspecified), for which the GI50 in the assay with SF-295, in the assay with SW-620, in the assay with MCF7, in the assay with SK-MEL-5, in the assay on KM12 and with OVCAR-4 was > 100 µM (inactive) throughout. In addition, the GI50 in the assay on ACHN, with SK-MEL-28, in the assay on MDA-MB-231, in the assay on SR, in the assay on MDA-N and with HL-60 was > 100 µM (inactive) in each case. The GI50 with NCI-H226, in the assay with UACC-62, with NCI-H23 and in the assay with SK-MEL-2 was > 100 µM (inactive) each time.
